Experimental data taken from patent US12097200B2, “Combination of BI853520 with chemotherapeutic drugs” (INXMED (NANJING) CO., LTD., priority 2020, dated 2024).
Several values for one entry are separate records, joined by “and”; a condition that tells them apart may be missing. Equal entries are not always repeated.

What was measured:
[1] = system: CTG-0252; experiment: Antitumor activity in ovarian cancer PDX model CTG-0252; type: in vivo, mouse; settings: 7 days until end of test, BI 853520 50 mg/kg PO BID, PLD 3 mg/kg IV q7d, carboplatin 25 mg/kg IP + paclitaxel 20 mg/kg IV q7d
Description: (§1) Body weights (at start of dosing) were approximately 20 grams. […] Immunocompromised female mice were housed in HEPA ventilated cages (Innocage® IVC, Innovive USA) at 68-74° F. (20-23° C.) and 30-70% humidity under a 12-hour light/12-hour dark cycle. […] Animals with >10% body weight loss compared to day 0 received DietAel 76A (ClearH2O®, Portland, ME) for free. There were 3 mice in each group.
(§2) Mice were implanted with tumor cells from the ChampionsTumorGraft® ovarian model, which was established from patients previously treated with platinum-based therapy. After tumors reached 1000-1500 mm^3, they were collected, and tumor fragments SCs were implanted in the left flank of female pre-study mice. Each study animal was implanted with a specific passage batch. Tumor volume was measured twice a week with calipers to monitor tumor growth, and tumor volume (TV) was calculated using the formula (0.52×[length×width^2]). […] After initiation of dosing, animals were weighed daily using a digital scale and TV was measured twice weekly. […]
(§3) Inhibitory effect on tumor growth was determined by calculating TGI (100%×[1−(final MTV−initial MTV of the treatment group)/(final MTV−initial MTV of the control group)]). […]
(§4) CR: no TV could be detected (<4×4 mm^2), in 2 consecutive measurements […]

[2] = system: CTG-0956; experiment: Antitumor activity in ovarian cancer PDX model CTG-0956; type: in vivo, mouse; settings: CTG-0956 (carboplatin and paclitaxel-resistant); 67 days until end of test; doses as Table 3
Description: as §1, §2, §3, §4

[3] = system: CTG-0964; experiment: Antitumor activity in ovarian cancer PDX model CTG-0964; type: in vivo, mouse; settings: CTG-0964 (carboplatin and paclitaxel-resistant); 35 days until end of test; doses as Table 3
Description: as §1, §2, §3, §4

[4] = system: CTG-1809; experiment: Antitumor activity in ovarian cancer PDX model CTG-1809; type: in vivo, mouse; settings: CTG-1809 (carboplatin and paclitaxel-resistant); 36 days until end of test; doses as Table 3
Description: as §1, §2, §3, §4

[5] = system: GXA 3039 gastric cancer PDX model
Description: Mice were housed in individual ventilated cages ([sequence] Sealsafe™-IVC-System, [sequence], Hohenpeissenberg, Germany), and type II or III cages were selected according to the number of experimental animals. The cages were under the conditions: 14L:10D light-dark cycle, air exchange (AC) rate of 60-65 AC/hr in the cage, 25±1° C. and 40-70% humidity. […] Water and diet were changed twice a week, and all materials were autoclaved before use.
Tumor fragments were implanted subcutaneously into the flank of female pre-study mice. […] Animals that were not randomized were euthanized. The date of randomization was designated as day 0 of the test, and dosing began on day 1. […] If less than 70% of the original number of mice survived (i.e. less than 6 out of 8), the entire group was terminated. […] Tolerability was assessed using the group with the largest median body weight loss (BWL) among groups.
Inhibition of tumor growth was determined by calculating TGI.
Additional endpoints used to assess efficacy included: time to tumor volume doubling/quadrupling and tumor growth delay/time to tumor progression/tumor repopulation.
Time to tumor volume doubling/quadrupling: The time to tumor volume doubling/quadrupling (Td/Tq) for the test and control groups was defined as the time interval (in days) required for each group to reach 200%/400% of the median RTV. The relative volume of a single tumor on day X (RTVx [%]) was obtained by dividing the absolute volume of the tumor on day X (Tx) by the absolute volume of the tumor on day 0 (T0) and then multiplying it by 100, as follows:
Tumor growth delay/time to tumor progression/tumor repopulation: To assess the difference in time to tumor progression/tumor repopulation after tumor regression during the no-dose observation period (tumor growth delay, TGD), Kaplan-Meier survival analysis was used. A relative tumor volume of 400% was defined as the endpoint.
The control group for oral administration was 0.5% Natrosol. The control group for intravenous administration was 0.9% saline. Each dose was 10 ml/kg.
Data were used for statistical analysis at the end of the study. The one-tailed nonparametric Mann-Whitney-Wilcoxon U test was used with the significance level a set at 0.05. The p-values obtained from the U-test were adjusted using the Bonferroni-Holm correction.
To assess the statistical significance of differences in time to tumor progression/tumor growth delay (TGD) using 400% of RTV as the trial endpoint, the Kaplan-Meier survival mode statistic was used in conjunction with the log-rank Mantel-Cox test for pairwise comparisons.
Additionally, to assess tolerance to treatment, a two-tailed nonparametric Mann-Whitney-Wilcoxon U test was performed using body weights determined at the end of the dosing period (i.e., on the day TGI values were calculated).
By convention, p-values≤0.05 represented significant tumor inhibition or weight loss.

[6] = system: PC-3 cells; experiment: Antitumor activity in mouse xenograft model of human prostate cancer (PC-3); settings: PC-3 xenograft, combination of both
[7] = system: CTG-0992; experiment: Antitumor activity in ovarian cancer PDX model CTG-0992; type: in vivo, mouse; settings: CTG-0992 (carboplatin and paclitaxel-resistant); 60 days until end of test; doses as Table 3
Description: as §1, §2, §3, §4

[8] = system: KYSE-70 cells; experiment: Antitumor activity in mouse xenograft model of human esophageal cancer (KYSE-70); type: in vivo; settings: KYSE-70 xenograft, combination of both
[9] = BI 853520 25 mg/kg qd, docetaxel 7.5 mg/kg q7d
[10] = BI 853520 50 mg/kg qd, docetaxel 10 mg/kg q7d

## COc1cc(C(=O)NC2CCN(C)CC2)c(F)cc1Nc1ncc(C(F)(F)F)c(Oc2cccc3c2C(=O)N(C)C3)n1 [BI 853520, 2-fluoro-5-methoxy-4-[(4-(2-methyl-3-oxo-2,3-dihydro-1H-isoindole-4-oxy)-5-trifluoromethyl-pyrimidin-2-yl)amino]-N-(1-methyl-piperidin-4-yl)benzamide]
[1]
  TGI (%): 54%
[2]
  TGI (%): 77%
[3]
  TGI (%): 66%
[4]
  TGI (%): −58%
[5]; GXA 3039 PDX, doses as Table 8
  Antitumor effect (in words): did not show any antitumor efficacy
[5]; GXA 3039 PDX, time to 200% of median RTV, doses as Table 8
  Td (time to tumor volume doubling): 8.1 days
[5]; GXA 3039 PDX, time to 400% of median RTV, nr = not reached until end of test, doses as Table 8
  Tq (time to tumor volume quadrupling): 41.2 days
[5]; GXA 3039 gastric cancer PDX, day 36, BI 853520 50 mg/kg/d PO days 1-35, docetaxel 10 mg/kg IV days 1, 8, 15, 22, 29, combination of both
  TGI [%] (d): 0% and 0(36) %
[5]; female, BomTac:NMRI-Foxn1nu, mouse, in vivo
  Survival rate: 4/8
[6]; day 35 (withdrawal on day 28), BI 853520 25 mg/kg qd by gavage, docetaxel 7.5 mg/kg q7d i.v.
  Median tumor volume: 316 mm^3
[6]; [9]
  Antitumor effect (in words): certain inhibitory effect on tumor growth
  Change in median body weight: 2.4%
  TGI: 66%
  Tumor regression (animals with regression/animals in group): 0/7
[7]
  TGI (%): 49%
[8]; day 42, BI 853520 50 mg/kg qd by gavage, docetaxel 10 mg/kg q7d i.v.
  Median tumor volume: 497 mm^3
[8]; [10]
  Antitumor effect (in words): no inhibitory effect on tumor growth
  Change in median body weight: 8.8%
  TGI: 42%
  Tumor regression (animals with regression/animals in group): 1 of the 7 and 1/7
